Test system: human hepatocytes cultured in human plasma medium
Assay type: cell-based

SMILES: COc1cc2c(c3oc(=O)c4c(c13)CCC4=O)[C@@H]1C=CO[C@@H]1O2 [Aflatoxin B1]
- UC50 value after day 10 treatment relative to 2-day treatment (fold lower): 19 ×
- cytotoxicity to human hepatocytes: cytotoxic

Reference: patent publication US20190218588A1, “NOVEL CELL CULTURE METHOD, CELL CULTURE SYSTEM AND USES THEREOF” (priority 2016, published 2019)
